Results on four compounds are retold here after US12055546B2, “Fluorescent probe for detecting carboxypeptidase activity” (THE UNIVERSITY OF TOKYO, priority 2018, dated 2024).

A short description of series [1]: Absorption/fluorescence spectrum measurement. The class given is physicochemical. To be noted: for Absorption maximum (nm) / Fluorescence maximum (nm) / Quantum yield: 200 mM phosphate buffer (pH 7.4); for Fluorescence under physiological conditions: as compared to fluorescein. The method, then: The absorption spectrum was measured using UV-2450 (SIMADZU), and the fluorescence spectrum was measured using F-7000 (HITACHI).
FIG. 9 and FIG. 10 illustrate the results of the absorption/fluorescence spectrum measurement of 2Me5GluAF-TG (Compound 32). […] The absorption spectrum was measured using UV-2450 (SIMADZU), and the fluorescence spectrum was measured using F-7000 (HITACHI).

Series [2] has as its target T1, PSMA (Homo sapiens, UniProt Q04609). Put plainly: Enzyme assay with PSMA (Example 2), fluorescence spectrum and Michaelis-Menten plot. It counts as biochemical. The note with it: for Fluorescence rise due to enzymatic reaction with PSMA: 10 μM probe, 0.44 μg PSMA, 37° C., 15 hours. The method, then: A change in the fluorescence spectrum due to the enzymatic reaction was measured as follows. The reactivity of 6-fluAFGlu to PSMA was evaluated by creating a Michaelis-Menten plot. • (1) Two solutions prepared by dissolving 10 μM probe in 200 μL of each assay buffer were provided. • (Assay buffer: 50 mM HEPES, 100 mM NaCl, pH 7.5) • (2) 0.44 μg of PSMA was added to each and incubated at 37° C. for 15 hours. For one of the solutions, a PSMA specific inhibitor 2-(Phosphonomethyl)-pentandioic acid (2-PMPA) (final concentration 10 μM) was also added at the same time and incubated at 37° C. for 15 hours. • (3) Each solution after the incubation in (2) was diluted to 2800 μL with 200 mM Na-Pi buffer, and the fluorescence spectrum was measured.
FIG. 1 illustrates the fluorescence spectrum of 5-fluAFGlu and 6-fluAFGlu after addition of PSMA and an inhibitor (2-PMPA, 10 μM) (S/N to 417 at 516 nm).

Series [3] concerns the target T1, PSMA. Put plainly: Reactivity with PSMA purified enzyme (Example 6). It counts as biochemical. To be noted: apparent dynamic parameter, Table 4.
Series [4] concerns LNCaP cell lysate (PSMA expressing prostate cancer cell). Description: Cell lysate assay, LNCaP. To be noted: probe 10 μM, 37° C. The class given is biochemical. The protocol: (§1) A PSMA specific inhibitor 2-PMPA (10 μM) was added to one of LNCaP cell lysate samples at the same time, and measurement was performed. • (2) The obtained fluorescence intensity of each lysate was normalized based on 0 minutes being set to 1, and then plot was performed with the incubation time on the horizontal axis.
(§2) A solution (20 μM, 100 μL) of 2Me5GluAF-TG (Compound 32) and a cell lysate (0.36 mg/mL, 100 μL) were reacted in TBS-T buffer at 37° C., and the fluorescence intensity was measured every 30 minutes. The measurement procedure is as described in Example 3.
(§3) Ex/em: 485/535 nm, n=3, probe final concentration: 10 μM, inhibitor (2-PMPA) concentration: 10 μM

Series [5] has as its system PC3 cell lysate (PSMA non-expressing prostate cancer cell). Put plainly: Cell lysate assay, PC3. The class given is biochemical. The note with it: probe 10 μM, 37° C. The method, then: as §1, §2, §3
Series [6] deals with LNCaP (PSMA expressing cell). Description: Live cell assay on 96-well plate (plate reader). It counts as cell-based. The protocol: LNCaP as a PSMA expressing cell and PC3 as a PSMA non-expressing cell were cultured on a 96-well plate, a 10 μM aqueous solution of 6-fluAFGlu (Compound 25) was added thereto, and the cells were observed over time.
Series [7] concerns Cc1ccc(/N=N/C(=O)N[C@@H](CCC(=O)O)C(=O)O)cc1-c1c2ccc(=O)cc-2oc2cc(O)ccc12. Description: Reactivity with PSMA purified enzyme (Example 6). The note with it: other: apparent dynamic parameter, PSMA added to various probe concentrations, Table 4; 37.0 °C. The class given is biochemical, human.
The next series concerns the target T2, carboxypeptidase A (CPA) (Homo sapiens, UniProt P15085).
T2 sequence (P15085 111-419): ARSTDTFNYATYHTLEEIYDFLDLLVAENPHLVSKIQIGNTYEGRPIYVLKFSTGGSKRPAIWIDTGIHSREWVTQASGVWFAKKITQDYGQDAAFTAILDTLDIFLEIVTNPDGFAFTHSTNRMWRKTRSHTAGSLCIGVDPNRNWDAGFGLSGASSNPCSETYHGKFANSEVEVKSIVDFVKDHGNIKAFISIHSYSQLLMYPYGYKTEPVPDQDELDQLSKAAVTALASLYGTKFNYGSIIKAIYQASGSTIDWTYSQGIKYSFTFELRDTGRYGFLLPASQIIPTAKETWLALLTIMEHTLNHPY
Put plainly: Enzyme assay with CPA. The class given is biochemical. The protocol:
• (1) First to third solutions prepared by dissolving 10 μM probe in 600 μL of each assay buffer were provided. • (Assay buffer: Tris-buffered saline (TBS)) (2) 2 μg of CPA was activated with 18 μL of 5 ng/mL trypsine solution for 1 hour • (3) 9 μL of the solution in (2) was added to the solution in (1), and the mixture was incubated at 37° C. for 5 hours. For one of the solutions, a CPA specific inhibitor; potato carboxypeptidase inhibitor (final concentration 10 μg/mL) was also added at the same time and incubated at 37° C. for 5 hours. • (4) 200 μL of each solution after the incubation in (3) was diluted to 2800 μL with 200 mM Na-Pi […], and the fluorescence spectrum was measured.

The mark [8] stands for this setting: apparent dynamic parameter with PSMA, Table 2.

T1 sequence (Q04609 whole entry): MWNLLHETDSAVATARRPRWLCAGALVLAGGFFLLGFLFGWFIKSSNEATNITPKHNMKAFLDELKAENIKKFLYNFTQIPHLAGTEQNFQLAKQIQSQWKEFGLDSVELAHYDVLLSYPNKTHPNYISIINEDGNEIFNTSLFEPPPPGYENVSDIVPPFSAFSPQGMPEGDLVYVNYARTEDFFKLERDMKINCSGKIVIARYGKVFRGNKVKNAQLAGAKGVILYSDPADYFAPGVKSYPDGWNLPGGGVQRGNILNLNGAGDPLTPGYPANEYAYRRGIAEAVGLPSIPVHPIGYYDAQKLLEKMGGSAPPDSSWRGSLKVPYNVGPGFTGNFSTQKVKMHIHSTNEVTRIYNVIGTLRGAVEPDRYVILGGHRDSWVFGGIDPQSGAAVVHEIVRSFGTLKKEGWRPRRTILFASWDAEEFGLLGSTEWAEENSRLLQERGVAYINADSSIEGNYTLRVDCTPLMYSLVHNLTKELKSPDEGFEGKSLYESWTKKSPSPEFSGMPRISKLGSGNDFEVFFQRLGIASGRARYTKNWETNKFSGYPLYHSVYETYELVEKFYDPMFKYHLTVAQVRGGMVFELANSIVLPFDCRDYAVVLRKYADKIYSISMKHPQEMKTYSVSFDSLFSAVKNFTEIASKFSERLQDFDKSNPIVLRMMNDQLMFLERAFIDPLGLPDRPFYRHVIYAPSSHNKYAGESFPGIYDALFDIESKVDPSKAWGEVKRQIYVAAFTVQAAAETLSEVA

With `O=C(O)CCC(NC(=O)N=Nc1ccc(C(=O)O)c(-c2c3ccc(=O)cc-3oc3cc(O)ccc23)c1)C(=O)O` (centres unmarked) [Compound 6-fluAFGlu], in series [1], the “Absorption maximum (nm)” value came out at 494 nm, the “Fluorescence maximum (nm)” value amounted to 526 nm, the Quantum yield was 0.002 and the “Fluorescence under physiological conditions” value is recorded as “almost no fluorescencence”. Further, the “Fluorescence rise due to enzymatic reaction with PSMA” value at PSMA [2] is listed as “a fluorescence rise due to an enzymatic reaction was observed”. Besides, on PSMA [2] (setting [8]), the Michaelis-Menten constant (Km) is 2.4 µM and the kcat amounted to 0.00055 s⁻¹. Further, the “S/N of fluorescence spectrum after addition of PSMA and inhibitor” value at PSMA [2] (at 516 nm, inhibitor 2-PMPA 10 μM) was roughly 417. In addition, the Km at PSMA [3] (PSMA added to various probe concentrations) worked out at 5 µM. For the same compound, the kcat on PSMA [3] was 0.001 s⁻¹. Moreover, the “Increase in fluorescence in LNCaP cell lysate with inhibitor” value in series [4] (2-PMPA 10 μM) was “almost no increase in fluorescence was observed”. Moreover, in series [4], the “Increase in fluorescence in LNCaP cell lysate” value is “a significant increase in fluorescence was observed”. The “Increase in fluorescence in PC3 cell lysate” value in series [5] is “almost no increase in fluorescence was observed”. Further, the “Increase in fluorescence intensity in live LNCaP cells” value in series [6] (10 μM probe in TBS, compared to PC3) is recorded as “a significant increase in fluorescence intensity was observed in LNCaP compared to PC3”. Moreover, in series [6] (10 μM probe, 2-PMPA 10 μM), the “Increase in fluorescence in live LNCaP cells with inhibitor” value was “significantly suppressed”.
In the case of recombinant human PSMA (Homo sapiens), in series [7], the Km came out at 4.3 µM, the kcat was 0.066 s⁻¹ and the kcat/Km came to 15300 M⁻¹ s⁻¹.
Turning to `O=C(N=Nc1ccc(C(=O)O)c(-c2c3ccc(=O)cc-3oc3cc(O)ccc23)c1)NC(Cc1ccccc1)C(=O)O` (centres unmarked) [Compound 6-fluAFPhe], in series [1], the “Absorption maximum (nm)” value was determined as 494 nm, the “Fluorescence maximum (nm)” value is 519 nm, the Quantum yield was 0.025 and the “Fluorescence under physiological conditions” value is on record as “almost no fluorescencence”. The “Fluorescence rise due to enzymatic reaction with CPA” value at carboxypeptidase A (CPA) (10 μM probe, 37° C., 5 hours) is “the fluorescence rise due to the enzymatic reaction was observed”. Also, the “S/N of fluorescence spectrum after addition of CPA1 and inhibitor” value on carboxypeptidase A (CPA) (at 517 nm, potato carboxypeptidase inhibitor, 10 μM) is roughly 13.
With `O=C(O)CCC(NC(=O)N=Nc1ccc2c(c1)C(=O)OC21c2ccc(O)cc2Oc2cc(O)ccc21)C(=O)O` (centres unmarked) [Compound 5-fluAFGlu], in series [1], the “Absorption maximum (nm)” value turned out to be 494 nm, the “Fluorescence maximum (nm)” value is 521 nm, the Quantum yield came to 0.003 and the “Fluorescence under physiological conditions” value was “almost no fluorescencence”. Besides, the “Fluorescence rise due to enzymatic reaction with PSMA” value on PSMA [2] is on record as “only in 6-fluAFGlu”.

What is called Km is the substrate concentration at which the rate is half of its maximum. For orientation: kcat means the maximal rate divided by the concentration of active sites. The kcat/Km is the second-order rate constant that governs catalysis at low substrate concentration.
